Laboratory results published in patent publication US20160367623A1, “AGONISTS OF GUANYLATE CYCLASE USEFUL FOR THE TREATMENT OF GASTROINTESTINAL DISORDERS, INFLAMMATION, CANCER AND OTHER DISORDERS” (priority 2015, published 2016).
Bridge positions count the residues as written; N and C are the ends. Ends that are not written are not given here.

Test system: patients with chronic idiopathic constipation (CIC)
Assay: Second phase 3 CIC trial: change from baseline in stool consistency (BSFS)
Assay type: in vivo, human
Conditions: 3 mg
[1] = Post-Treatment Week 13, All Randomized (includes Duplicate Patients)
[2] = Post-Treatment Week 13, ITT Population
[3] = Post-Treatment Week 13, ITT Population-Excluding Duplicate Patients
[4] = Post-Treatment Week 14, All Randomized (includes Duplicate Patients)
[5] = Post-Treatment Week 14, ITT Population
[6] = Post-Treatment Week 14, ITT Population-Excluding Duplicate Patients
[7] = Week 1, All Randomized (includes Duplicate Patients)
[8] = Week 1, ITT Population-Excluding Duplicate Patients
[9] = Week 2, All Randomized (includes Duplicate Patients)
[10] = Week 2, ITT Population-Excluding Duplicate Patients
[11] = Week 3, All Randomized (includes Duplicate Patients)
[12] = Week 3, ITT Population-Excluding Duplicate Patients
[13] = Week 4, All Randomized (includes Duplicate Patients)
[14] = Week 4, ITT Population-Excluding Duplicate Patients
[15] = Week 5, All Randomized (includes Duplicate Patients)
[16] = Week 5, ITT Population-Excluding Duplicate Patients
[17] = Week 6, All Randomized (includes Duplicate Patients)
[18] = Week 6, ITT Population-Excluding Duplicate Patients

Asn^1-Asp^2-Glu^3-Cys^4-Glu^5-Leu^6-Cys^7-Val^8-Asn^9-Val^10-Ala^11-Cys^12-Thr^13-Gly^14-Cys^15-Leu^16 (NDECELCVNVACTGCL; disulfide 4-12, 7-15) [Plecanatide, uroguanylin analogue, guanylate cyclase-C agonist; (C4:C12, C7:C15) bicycle peptide]
Change from Baseline in Stool Consistency, Difference from Placebo [1]: 0.24 | Change from Baseline in Stool Consistency, LS Mean (SE) [1]: 1.23 (0.069) | Change from Baseline in Stool Consistency, Mean (SD) [1]: 1.27 (1.358) | Change from Baseline in Stool Consistency, Difference from Placebo [2]: 0.23 | Change from Baseline in Stool Consistency, LS Mean (SE) [2]: 1.22 (0.071) | Change from Baseline in Stool Consistency, Mean (SD) [2]: 1.25 (1.368) | Change from Baseline in Stool Consistency, Difference from Placebo [3]: 0.23 | Change from Baseline in Stool Consistency, LS Mean (SE) [3]: 1.22 (0.072) | Change from Baseline in Stool Consistency, Mean (SD) [3]: 1.25 (1.374) | Change from Baseline in Stool Consistency, Difference from Placebo [4]: 0.15 | Change from Baseline in Stool Consistency, LS Mean (SE) [4]: 1.14 (0.071) | Change from Baseline in Stool Consistency, Mean (SD) [4]: 1.19 (1.393) | Change from Baseline in Stool Consistency, Difference from Placebo [5]: 0.14 | Change from Baseline in Stool Consistency, LS Mean (SE) [5]: 1.15 (0.073) | Change from Baseline in Stool Consistency, Mean (SD) [5]: 1.19 (1.402) | Change from Baseline in Stool Consistency, Difference from Placebo [6]: 0.14 | Change from Baseline in Stool Consistency, LS Mean (SE) [6]: 1.15 (0.074) | Change from Baseline in Stool Consistency, Mean (SD) [6]: 1.18 (1.408) | Change from Baseline in Stool Consistency, Difference from Placebo [7]: 0.68 | Change from Baseline in Stool Consistency, LS Mean (SE) [7]: 1.26 (0.070) | Change from Baseline in Stool Consistency, Mean (SD) [7]: 1.38 (1.464) | Change from Baseline in Stool Consistency, Difference from Placebo (Week 1, ITT Population): 0.68 | Change from Baseline in Stool Consistency, LS Mean (SE) (Week 1, ITT Population): 1.28 (0.072) | Change from Baseline in Stool Consistency, Mean (SD) (Week 1, ITT Population): 1.39 (1.479) | Change from Baseline in Stool Consistency, Difference from Placebo [8]: 0.69 | Change from Baseline in Stool Consistency, LS Mean (SE) [8]: 1.30 (0.073) | Change from Baseline in Stool Consistency, Mean (SD) [8]: 1.39 (1.469) | Change from Baseline in Stool Consistency, Difference from Placebo [9]: 0.66 | Change from Baseline in Stool Consistency, LS Mean (SE) [9]: 1.35 (0.070) | Change from Baseline in Stool Consistency, Mean (SD) [9]: 1.46 (1.566) | Change from Baseline in Stool Consistency, Difference from Placebo (Week 2, ITT Population): 0.66 | Change from Baseline in Stool Consistency, LS Mean (SE) (Week 2, ITT Population): 1.38 (0.073) | Change from Baseline in Stool Consistency, Mean (SD) (Week 2, ITT Population): 1.46 (1.583) | Change from Baseline in Stool Consistency, Difference from Placebo [10]: 0.65 | Change from Baseline in Stool Consistency, LS Mean (SE) [10]: 1.39 (0.073) | Change from Baseline in Stool Consistency, Mean (SD) [10]: 1.46 (1.578) | Change from Baseline in Stool Consistency, Difference from Placebo [11]: 0.52 | Change from Baseline in Stool Consistency, LS Mean (SE) [11]: 1.41 (0.070) | Change from Baseline in Stool Consistency, Mean (SD) [11]: 1.52 (1.570) | Change from Baseline in Stool Consistency, Difference from Placebo (Week 3, ITT Population): 0.51 | Change from Baseline in Stool Consistency, LS Mean (SE) (Week 3, ITT Population): 1.41 (0.073) | Change from Baseline in Stool Consistency, Mean (SD) (Week 3, ITT Population): 1.51 (1.573) | Change from Baseline in Stool Consistency, Difference from Placebo [12]: 0.51 | Change from Baseline in Stool Consistency, LS Mean (SE) [12]: 1.42 (0.074) | Change from Baseline in Stool Consistency, Mean (SD) [12]: 1.52 (1.578) | Change from Baseline in Stool Consistency, Difference from Placebo [13]: 0.58 | Change from Baseline in Stool Consistency, LS Mean (SE) [13]: 1.45 (0.071) | Change from Baseline in Stool Consistency, Mean (SD) [13]: 1.56 (1.509) | Change from Baseline in Stool Consistency, Difference from Placebo (Week 4, ITT Population): 0.55 | Change from Baseline in Stool Consistency, LS Mean (SE) (Week 4, ITT Population): 1.45 (0.073) | Change from Baseline in Stool Consistency, Mean (SD) (Week 4, ITT Population): 1.55 (1.494) | Change from Baseline in Stool Consistency, Difference from Placebo [14]: 0.54 | Change from Baseline in Stool Consistency, LS Mean (SE) [14]: 1.45 (0.074) | Change from Baseline in Stool Consistency, Mean (SD) [14]: 1.56 (1.504) | Change from Baseline in Stool Consistency, Difference from Placebo [15]: 0.68 | Change from Baseline in Stool Consistency, LS Mean (SE) [15]: 1.53 (0.071) | Change from Baseline in Stool Consistency, Difference from Placebo (Week 5, ITT Population): 0.68 | Change from Baseline in Stool Consistency, LS Mean (SE) (Week 5, ITT Population): 1.55 (0.074) | Change from Baseline in Stool Consistency, Mean (SD) (Week 5, ITT Population): 1.69 (1.462) | Change from Baseline in Stool Consistency, Difference from Placebo [16]: 0.67 | Change from Baseline in Stool Consistency, LS Mean (SE) [16]: 1.56 (0.075) | Change from Baseline in Stool Consistency, Mean (SD) [16]: 1.70 (1.469) | Change from Baseline in Stool Consistency, Difference from Placebo [17]: 0.74 | Change from Baseline in Stool Consistency, LS Mean (SE) [17]: 1.55 (0.072) | Change from Baseline in Stool Consistency, Difference from Placebo (Week 6, ITT Population): 0.74 | Change from Baseline in Stool Consistency, LS Mean (SE) (Week 6, ITT Population): 1.56 (0.074) | Change from Baseline in Stool Consistency, Mean (SD) (Week 6, ITT Population): 1.67 (1.533) | Change from Baseline in Stool Consistency, Difference from Placebo [18]: 0.73 | Change from Baseline in Stool Consistency, LS Mean (SE) [18]: 1.56 (0.075) | Change from Baseline in Stool Consistency, Mean (SD) [18]: 1.67 (1.529)
